Assay results: patent US12577417B2, “Active energy ray-curable aqueous ink, recording method and recording apparatus” (CANON KABUSHIKI KAISHA, priority 2021, dated 2026)

Assay: Water solubility of bifunctional polymerizable monomer
Assay type: physicochemical
Details: mixed with ion exchanged water at 25° C.; concentration at which no insoluble matter is found by visual observation
Description: When a bifunctional polymerizable monomer is mixed with ion exchanged water at 25° C. and the concentration at which no insoluble matter is found as a result of visual observation of the resulting mixture is shown as water solubility. Higher water solubility is preferred and the evaluation criteria is as follows.
A: no insoluble matter is found at 20% by mass
B: no insoluble matter is found at 5% by mass
C: no insoluble matter is found at 1% by mass
D: an insoluble matter is found at 1% by mass

Q: With `C=CC(=O)NCCCCCC(=O)NCCOCCOCCNC(=O)CCCCCNC(=O)C=C` [Curable substance 2] as the compound, how does the Water solubility read?
A: C (no insoluble matter is found at 1% by mass)

Q: For `C=CC(=O)NCCCCCC(=O)NCCNC(=O)CCCCCNC(=O)C=C` [Curable substance 12], which Water solubility is on record?
A: C (no insoluble matter is found at 1% by mass)

Q: For `C=CC(=O)NCCOCCOCCNC(=O)C=C` [Comparative compound 2, reference compound], which Water solubility is on record?
A: A (no insoluble matter is found at 20% by mass)

Q: For `C=CC(=O)NCCC(=O)NCCCNC(=O)CCNC(=O)C=C` [Curable substance 3], which Water solubility is on record?
A: B (no insoluble matter is found at 5% by mass)

Q: Which Water solubility does the source give for `C=CC(=O)NCCCOCCOCCOCCCN(O)C(=O)C=C` [Comparative compound 1, reference compound] here?
A: A (no insoluble matter is found at 20% by mass)

Q: With `C=CC(=O)NCCCC(=O)NCCCNC(=O)CCCNC(=O)C=C` [Curable substance 4] as the compound, how does the Water solubility read?
A: B (no insoluble matter is found at 5% by mass)

Q: For `C=CC(=O)NCCC(=O)NCCOCCOCCNC(=O)CCNC(=O)C=C` [Curable substance 1], which Water solubility is on record?
A: A (no insoluble matter is found at 20% by mass)
